The source of these data is ChEMBL document CHEMBL1857833, “Screening and optimization of specific chemical series against human African Trypanosomiasis (HAT)”.

Series [1] can be described thus: DNDI: Solubility in phosphate buffered saline at pH7.4 measured by nephelometry at room temperature (NEPH-RT). Conditions: pH 7.4. In kind it is physicochemical.
For series [2], the system named is Trypanosoma brucei. The experiment in a line: DNDI: Inhibition of Human African Trypanosomiasis, SBRI 427, in vitro. In kind it is functional, organism-based. The conditions noted are these: Trypanosoma brucei, SBRI 427; read-out: IC50.
The conditions of series [3]: mouse, microsomes, 1 µM.
Description: DNDI: in vitro intrinsic clearance in mouse liver microsomes at a concentration of 1uM
Series [4] in a line: DNDI: Lipophilicity measured in Chromatographic hydrophobicity index (CHI) assay, pH 7.4. In kind it is physicochemical. The conditions noted are these: buffer.
A short description of series [5]: DNDI: Cytotoxicity against L929 mouse fibroblasts, 72 hour. It counts as toxicity, cell-based. The conditions noted are these: mouse, L929 mouse fibroblasts.
Series [6] is described as follows: in vitro. The conditions noted are these: mouse, liver microsomes, t (1 / 2). (In general: Microsomes from liver hold many membrane-bound enzymes, among them those of drug oxidation.)
Description: DNDI: half life in mouse liver microsomes at a concentration of 1uM
A short description of series [7]: DNDI: Cytotoxicity against L929 mouse fibroblasts, CYTO-SP, 24 hour. Conditions: mouse, L929 mouse fibroblasts. It counts as toxicity, cell-based.

Values after ≈ are worked out from the molar mass of the structure shown. Where only a bound is given, the exact number is not on record here.

By solubility (kinetic) is commonly meant the concentration staying in solution when a stock, usually in DMSO, is diluted into the medium. A word on the IC50: it is the midpoint of a concentration-inhibition curve. As usually defined, the chromatographic logD is lipophilicity estimated from chromatographic retention. A high value points to higher lipophilicity. The half-life is the time in which the quantity being followed falls by half. Low values mean rapid decline, high ones slow decline. On to `CCCCCC(C)NCc1coc(-c2ccc(OC3CCCCC3)cc2)n1` (centres undefined), for which the solubility (kinetic) in series [1] came out at 3 µM (≈ 1.11 µg/mL). Moreover, the half-inhibitory concentration (IC50) in series [2] was determined as 0.39 µg/mL (≈ 1.05 µM). In series [3], this compound came in with a CLint in vitro of 13 µL/min/mg. The same compound gave a chromatographic logD in series [4] of 4.28. Moreover, the IC50 at 72 h in series [5] is 1.48 µg/mL (≈ 3.99 µM). This compound also came in with a half-life at 1 µM in series [6] of 65 min.

As to `CCCCOc1ccc(-c2nc(CNCCC3CCCN3C)co2)cc1` (centres undefined), in series [1], the kinetic solubility was 2 µM (≈ 0.715 µg/mL). For the same compound, the IC50 in series [2] turned out to be 0.31 µg/mL (≈ 0.867 µM). Besides, in series [3], the CLint in vitro was 12 µL/min/mg. The chromatographic logD in series [4] was 4.64. Besides, the IC50 at 72 h in series [5] is 2.9 µg/mL (≈ 8.11 µM). In series [6], this compound showed a half-life at 1 µM of 73 min.

In the case of `CCN(CC)CCCNc1cc(-c2ccccc2)nc2cc(-c3ccc(F)cc3)nn12`, the kinetic solubility in series [1] was 25 µM (≈ 10.4 µg/mL). Besides, the half-inhibitory concentration (IC50) in series [2] amounted to 2.46 µg/mL (≈ 5.89 µM). Further, the chromatographic logD in series [4] worked out at 4.84. The compound further showed a concentration for half-maximal inhibition (IC50) at 72 h in series [5] of 3.05 µg/mL (≈ 7.3 µM).

Turning to `COc1ccc(C(=O)OC2=CC(=O)N(C)C2)cc1`, the solubility (kinetic) in series [1] was more than 200 µM. Besides, in series [2], the IC50 is more than 5 µg/mL. In series [4], this compound showed a chromatographic logD of 2.72. For the same compound, the IC50 at 72 h in series [5] was more than 10 µg/mL.

As for `CCCCCOc1ccc(-c2nc(CNCCC3CCCN3C)co2)cc1` (centres undefined), in series [1], the kinetic solubility was less than 1 µM. In addition, the IC50 in series [2] worked out at 0.14 µg/mL (≈ 0.377 µM). Also, the CLint in vitro in series [3] stood at 11 µL/min/mg. Also, the chromatographic logD in series [4] is 5.2. In series [5], this compound yielded a 50% inhibitory concentration (IC50) at 72 h of 1.21 µg/mL (≈ 3.26 µM). Besides, in series [6], the half-life at 1 µM was 76 min.

With `O/N=C(\NC1CCCCC1)C1CCCCC1`, the solubility (kinetic) in series [1] is more than 200 µM. Also, the IC50 in series [2] was more than 5 µg/mL. In series [4], this compound came in with a chromatographic logD of 4.41. The compound also had an IC50 at 24 h in series [7] of more than 50 µg/mL.

For the compound `Cc1cccc(-c2nc(CNCCC3CCCN3C)c(C)o2)c1` (centres undefined), in series [1], the kinetic solubility is more than 200 µM. Further, in series [2], the IC50 is 0.55 µg/mL (≈ 1.75 µM). In series [4], this compound returned a chromatographic logD of 3.3. Besides, the IC50 at 72 h in series [5] came to 9.29 µg/mL (≈ 29.6 µM).

As to `N=C(NC1CCCCC1)c1ccccc1-c1ccccc1`, the kinetic solubility in series [1] is more than 200 µM. The IC50 in series [2] is more than 5 µg/mL. Moreover, in series [4], the chromatographic logD amounted to 2.87. The compound further returned a concentration for half-maximal inhibition (IC50) at 24 h in series [7] of more than 50 µg/mL.

`COc1ccc(CNC(CC(C)C)c2nc(Cc3ccccc3)c(N3CCOCC3)o2)cc1` (centres undefined): in series [1], the kinetic solubility worked out at 25 µM (≈ 11.2 µg/mL). The IC50 in series [2] was found to be 2.23 µg/mL (≈ 4.96 µM). The compound also came in with a CLint in vitro in series [3] of 463 µL/min/mg. Moreover, in series [4], the chromatographic logD is more than 5.2. Besides, the IC50 at 72 h in series [5] is more than 10 µg/mL. This compound registered a half-life at 1 µM in series [6] of 2 min.

In series [1], `Cc1ccc(-c2nc(CNCCC3CCCN3C)c(C)o2)cc1` (centres undefined) showed a solubility (kinetic) of more than 200 µM. The IC50 in series [2] was determined as 0.43 µg/mL (≈ 1.37 µM). Moreover, the chromatographic logD in series [4] came to 3.3. Besides, the IC50 at 72 h in series [5] came to 7.78 µg/mL (≈ 24.8 µM).

Compound `COc1ccc(/C(=N/O)Nc2cccc(F)c2)cc1` displayed a solubility (kinetic) in series [1] of 50 µM (≈ 13 µg/mL). The IC50 in series [2] is 0.67 µg/mL (≈ 2.57 µM). Further, the CLint in vitro in series [3] was 143.33 µL/min/mg. The chromatographic logD in series [4] came out at 3.09. The half-inhibitory concentration (IC50) at 72 h in series [5] was more than 10 µg/mL. The half-life at 1 µM in series [6] was determined as 5.93 min.

`O=C1CCCN1CCCNc1cc(-c2ccccc2)nc2cc(-c3ccc(F)cc3)nn12` registered a solubility (kinetic) in series [1] of 6 µM (≈ 2.58 µg/mL). Also, in series [2], the concentration for half-maximal inhibition (IC50) is more than 5 µg/mL. In series [4], this compound returned a chromatographic logD of 4.77. Further, the IC50 at 72 h in series [5] is more than 10 µg/mL.

In series [1], `COc1ccc(/C(=N/O)Nc2ccc(F)cc2)cc1` gave a solubility (kinetic) of 100 µM (≈ 26 µg/mL). For the same compound, the IC50 in series [2] came out at 4.54 µg/mL (≈ 17.4 µM). Further, the CLint in vitro in series [3] amounted to 118 µL/min/mg. Besides, in series [4], the chromatographic logD was found to be 3.02. The IC50 at 72 h in series [5] was more than 10 µg/mL. This compound displayed a half-life at 1 µM in series [6] of 7 min.

As to `CCC(C)C(NCc1ccccc1OC)c1nc(-c2ccccc2)c(N2CCCCC2)o1` (centres undefined), the kinetic solubility in series [1] was 2 µM (≈ 0.867 µg/mL). For the same compound, in series [2], the IC50 amounted to 4.82 µg/mL (≈ 11.1 µM). Besides, the CLint in vitro in series [3] turned out to be 227 µL/min/mg. In series [4], this compound came in with a chromatographic logD of more than 5.2. In series [5], this compound came in with an IC50 at 72 h of more than 10 µg/mL. The compound also showed a half-life at 1 µM in series [6] of 4 min.

`Fc1cccc(-c2cc3nc(-c4ccccc4)cc(NCCCN4CCCC4)n3n2)c1` had a kinetic solubility in series [1] of 3 µM (≈ 1.25 µg/mL). Besides, in series [2], the IC50 turned out to be 1.02 µg/mL (≈ 2.45 µM). In addition, in series [4], the chromatographic logD was 4.79. Further, the IC50 at 72 h in series [5] stood at 2.49 µg/mL (≈ 5.99 µM).
